The supplement of paper PMC12076712

How the values were obtained:
Experiment in all cases: pIC50, kinobeads binding competition
MELK = MELK (UniProt Q14680)
How it was run: (§1)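 Nine compound concentrations were tested, starting at 30 μM in 1:4 steps on live Jurkat cells (60 min, 37 °C, then lysis) or in 1:5 steps on Jurkat lysate or a 1:1:1:1 HEK293/K-562/HepG2/placenta lysate mix (60 min, 4 °C). Kinobeads-bound proteins were digested and quantified with TMT10 LC-MS/MS. pIC50 values are from logistic dose-response fits in the R drc package of fold changes relative to vehicle, from biological duplicates.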

UniProt P51955 = target: T1, UniProt P51955
T1 sequence (whole entry): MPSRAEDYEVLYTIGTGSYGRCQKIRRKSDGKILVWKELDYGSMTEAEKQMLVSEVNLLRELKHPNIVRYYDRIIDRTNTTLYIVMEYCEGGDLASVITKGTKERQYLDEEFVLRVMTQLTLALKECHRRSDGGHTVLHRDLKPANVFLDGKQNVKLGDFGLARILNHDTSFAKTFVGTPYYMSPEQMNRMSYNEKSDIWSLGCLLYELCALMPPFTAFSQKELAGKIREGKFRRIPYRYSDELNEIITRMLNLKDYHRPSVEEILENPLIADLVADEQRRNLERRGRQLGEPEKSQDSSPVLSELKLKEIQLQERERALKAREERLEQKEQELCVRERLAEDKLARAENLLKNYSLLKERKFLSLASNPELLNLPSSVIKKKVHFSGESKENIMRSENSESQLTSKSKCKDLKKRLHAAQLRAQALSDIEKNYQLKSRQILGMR
How it was run: as §1

SRC = SRC (UniProt P12931)
SRC, sequence (P12931 whole entry, looked up): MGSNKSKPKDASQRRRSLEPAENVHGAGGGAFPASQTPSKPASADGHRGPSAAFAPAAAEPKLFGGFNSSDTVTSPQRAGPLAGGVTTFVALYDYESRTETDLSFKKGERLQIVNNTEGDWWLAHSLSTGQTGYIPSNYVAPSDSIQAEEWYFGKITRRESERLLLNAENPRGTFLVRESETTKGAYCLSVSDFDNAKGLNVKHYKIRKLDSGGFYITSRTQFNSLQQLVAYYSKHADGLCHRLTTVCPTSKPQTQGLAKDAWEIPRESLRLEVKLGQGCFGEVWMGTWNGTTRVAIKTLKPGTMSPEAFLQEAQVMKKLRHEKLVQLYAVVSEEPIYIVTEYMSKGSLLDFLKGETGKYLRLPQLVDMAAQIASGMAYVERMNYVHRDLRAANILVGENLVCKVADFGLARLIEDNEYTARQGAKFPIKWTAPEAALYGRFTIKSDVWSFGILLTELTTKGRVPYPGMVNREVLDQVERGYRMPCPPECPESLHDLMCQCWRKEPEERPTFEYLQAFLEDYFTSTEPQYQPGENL
How it was run: as §1

NEK3 = target: T2, NEK3 (UniProt P51956)
T2 sequence (whole entry): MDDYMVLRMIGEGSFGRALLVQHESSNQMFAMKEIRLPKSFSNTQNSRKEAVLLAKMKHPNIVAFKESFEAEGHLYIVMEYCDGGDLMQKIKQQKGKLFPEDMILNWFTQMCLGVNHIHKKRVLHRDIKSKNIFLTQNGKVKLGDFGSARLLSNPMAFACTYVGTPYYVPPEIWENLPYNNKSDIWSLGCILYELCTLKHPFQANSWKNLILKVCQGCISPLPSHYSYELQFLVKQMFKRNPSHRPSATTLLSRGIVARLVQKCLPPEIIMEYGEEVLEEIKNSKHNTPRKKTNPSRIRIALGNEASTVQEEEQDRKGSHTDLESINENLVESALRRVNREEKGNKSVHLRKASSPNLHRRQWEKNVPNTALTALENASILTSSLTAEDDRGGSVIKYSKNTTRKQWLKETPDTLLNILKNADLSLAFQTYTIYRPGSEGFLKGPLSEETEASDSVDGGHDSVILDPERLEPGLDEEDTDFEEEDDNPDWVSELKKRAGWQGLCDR
How it was run: as §1

UniProt O60285 = target: T3, UniProt O60285; conditions: cell material: Lysate mix
T3 sequence (whole entry): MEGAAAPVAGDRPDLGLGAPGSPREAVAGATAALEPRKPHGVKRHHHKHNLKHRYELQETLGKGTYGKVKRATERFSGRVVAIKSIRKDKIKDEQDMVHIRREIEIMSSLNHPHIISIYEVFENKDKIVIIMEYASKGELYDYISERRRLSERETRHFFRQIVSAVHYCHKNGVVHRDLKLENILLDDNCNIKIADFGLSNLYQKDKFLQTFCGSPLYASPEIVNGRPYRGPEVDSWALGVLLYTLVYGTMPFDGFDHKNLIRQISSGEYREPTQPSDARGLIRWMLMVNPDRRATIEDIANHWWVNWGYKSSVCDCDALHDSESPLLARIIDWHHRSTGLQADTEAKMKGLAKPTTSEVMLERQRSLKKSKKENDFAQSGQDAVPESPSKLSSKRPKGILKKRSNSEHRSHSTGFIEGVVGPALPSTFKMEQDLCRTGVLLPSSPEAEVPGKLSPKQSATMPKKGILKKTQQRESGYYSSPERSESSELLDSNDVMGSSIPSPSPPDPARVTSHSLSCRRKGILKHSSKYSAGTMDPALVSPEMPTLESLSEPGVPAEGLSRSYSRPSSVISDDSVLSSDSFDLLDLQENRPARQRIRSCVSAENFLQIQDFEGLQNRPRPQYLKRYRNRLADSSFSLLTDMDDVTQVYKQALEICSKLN
How it was run: as §1

TGFBR1 = target: T4, TGFBR1 (UniProt P36897)
T4 sequence (whole entry): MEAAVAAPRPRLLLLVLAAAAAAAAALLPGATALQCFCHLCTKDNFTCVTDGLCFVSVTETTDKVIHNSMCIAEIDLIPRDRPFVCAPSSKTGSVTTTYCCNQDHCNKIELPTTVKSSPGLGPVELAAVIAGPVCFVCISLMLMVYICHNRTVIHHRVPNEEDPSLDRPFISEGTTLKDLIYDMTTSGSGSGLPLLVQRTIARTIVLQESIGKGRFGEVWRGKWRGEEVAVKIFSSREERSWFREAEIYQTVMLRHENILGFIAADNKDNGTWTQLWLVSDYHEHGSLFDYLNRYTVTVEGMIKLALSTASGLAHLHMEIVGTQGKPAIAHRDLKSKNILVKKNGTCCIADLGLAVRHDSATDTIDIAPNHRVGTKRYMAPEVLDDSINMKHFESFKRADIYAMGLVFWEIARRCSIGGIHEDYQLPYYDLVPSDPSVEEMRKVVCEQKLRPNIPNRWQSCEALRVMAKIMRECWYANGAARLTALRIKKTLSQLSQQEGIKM
How it was run: as §1

IRAK1 = IRAK1 (UniProt P51617)
IRAK1, sequence (P51617 whole entry, looked up): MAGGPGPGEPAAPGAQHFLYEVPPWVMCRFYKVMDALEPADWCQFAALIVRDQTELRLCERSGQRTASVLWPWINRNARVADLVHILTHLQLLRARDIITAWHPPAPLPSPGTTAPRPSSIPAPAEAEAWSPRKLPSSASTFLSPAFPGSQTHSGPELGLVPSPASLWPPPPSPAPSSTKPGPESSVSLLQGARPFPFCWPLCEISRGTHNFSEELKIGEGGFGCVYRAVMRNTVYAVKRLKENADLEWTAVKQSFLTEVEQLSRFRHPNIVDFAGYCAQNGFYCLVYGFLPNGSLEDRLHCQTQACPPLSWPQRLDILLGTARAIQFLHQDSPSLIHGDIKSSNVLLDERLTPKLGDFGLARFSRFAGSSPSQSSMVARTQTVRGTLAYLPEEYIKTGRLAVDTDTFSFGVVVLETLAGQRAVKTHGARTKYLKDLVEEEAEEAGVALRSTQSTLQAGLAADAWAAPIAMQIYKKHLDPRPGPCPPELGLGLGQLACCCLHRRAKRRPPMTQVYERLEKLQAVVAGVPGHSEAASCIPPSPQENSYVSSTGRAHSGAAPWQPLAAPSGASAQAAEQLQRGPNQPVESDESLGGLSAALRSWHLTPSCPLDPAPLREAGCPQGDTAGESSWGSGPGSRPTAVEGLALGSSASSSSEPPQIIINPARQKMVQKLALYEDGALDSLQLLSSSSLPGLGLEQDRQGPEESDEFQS
How it was run: as §1

IRAK4 = target: T5, IRAK4 (UniProt Q9NWZ3)
T5 sequence (whole entry): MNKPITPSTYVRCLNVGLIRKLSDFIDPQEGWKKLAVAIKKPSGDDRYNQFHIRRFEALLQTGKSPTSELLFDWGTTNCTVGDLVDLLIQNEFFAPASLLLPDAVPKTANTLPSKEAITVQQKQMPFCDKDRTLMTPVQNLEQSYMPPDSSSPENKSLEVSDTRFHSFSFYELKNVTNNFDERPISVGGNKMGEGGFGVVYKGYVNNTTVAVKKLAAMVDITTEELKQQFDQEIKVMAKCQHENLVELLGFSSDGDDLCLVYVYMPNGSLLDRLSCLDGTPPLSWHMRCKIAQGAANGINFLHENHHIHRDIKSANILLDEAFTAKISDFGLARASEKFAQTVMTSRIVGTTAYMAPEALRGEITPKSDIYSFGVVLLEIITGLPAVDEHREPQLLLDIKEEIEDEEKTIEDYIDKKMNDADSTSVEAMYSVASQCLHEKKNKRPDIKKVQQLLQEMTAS
How it was run: as §1

MELK, sequence (Q14680 whole entry, looked up): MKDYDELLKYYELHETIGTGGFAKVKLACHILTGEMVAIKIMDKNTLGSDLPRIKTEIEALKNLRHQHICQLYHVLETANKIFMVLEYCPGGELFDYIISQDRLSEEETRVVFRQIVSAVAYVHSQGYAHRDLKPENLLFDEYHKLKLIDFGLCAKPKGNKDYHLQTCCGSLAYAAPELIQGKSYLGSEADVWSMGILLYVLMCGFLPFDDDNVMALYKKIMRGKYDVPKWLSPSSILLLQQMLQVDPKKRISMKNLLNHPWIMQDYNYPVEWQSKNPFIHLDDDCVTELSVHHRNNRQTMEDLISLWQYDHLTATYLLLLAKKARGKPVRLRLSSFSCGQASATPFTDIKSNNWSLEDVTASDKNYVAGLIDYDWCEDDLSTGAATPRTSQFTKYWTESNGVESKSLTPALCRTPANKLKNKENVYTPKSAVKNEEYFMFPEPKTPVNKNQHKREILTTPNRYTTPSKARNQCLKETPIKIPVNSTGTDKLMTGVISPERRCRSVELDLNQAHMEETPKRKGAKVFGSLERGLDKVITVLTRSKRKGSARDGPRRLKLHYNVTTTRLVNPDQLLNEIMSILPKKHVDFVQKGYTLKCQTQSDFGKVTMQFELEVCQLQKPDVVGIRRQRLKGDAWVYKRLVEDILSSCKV

SMILES | pIC50 (MELK; cell material: Lysate mix) | pIC50 (UniProt P51955; cell material: Lysate mix) | pIC50 (NEK3; cell material: Jurkat cells) | pIC50 (NEK3; cell material: Lysate mix) | pIC50 (UniProt O60285) | pIC50 (TGFBR1; cell material: Lysate mix) | pIC50 (IRAK4; cell material: Lysate mix) | pIC50 (SRC; cell material: Lysate mix) | pIC50 (IRAK1; cell material: Lysate mix) | pIC50 (MELK; cell material: Jurkat cells) | pIC50 (MELK; cell material: Jurkat lysate) | pIC50 (UniProt P51955; cell material: Jurkat cells) | pIC50 (UniProt P51955; cell material: Jurkat lysate) | pIC50 (SRC; cell material: Jurkat cells) | pIC50 (SRC; cell material: Jurkat lysate) | pIC50 (TGFBR1; cell material: Jurkat cells) | pIC50 (TGFBR1; cell material: Jurkat lysate) | pIC50 (IRAK1; cell material: Jurkat cells) | pIC50 (IRAK1; cell material: Jurkat lysate) | pIC50 (IRAK4; cell material: Jurkat cells) | pIC50 (IRAK4; cell material: Jurkat lysate) | pIC50 (NEK3; cell material: Jurkat lysate)
CCNC(=O)c1cc(Nc2cc(C)[nH]n2)nc(N2CCN(Cc3ccc(S(=O)(=O)F)cc3)CC2)n1 | < 4.52 | 4.67 | – | < 4.52 | < 4.52 | 4.78 | < 4.52 | 6.61 | 4.8 | – | – | – | – | – | – | – | – | – | – | – | – | –
C#CCNC(=O)c1cc(Nc2cc(C3CC3)[nH]n2)nc(N2CCN(Cc3ccc(S(=O)(=O)F)cc3)CC2)n1 | < 4.52 | 5.87 | – | 5.7 | 4.83 | 5.46 | 5.06 | 6.24 | 5.96 | < 4.52 | < 4.52 | 6.69 | 5.41 | 6.41 | 5.68 | 5.75 | 4.84 | < 4.52 | 5.37 | 6.03 | 4.62 | 4.66
C#CCNC(=O)c1cc(Nc2cc(C)[nH]n2)nc(N2CCN(Cc3ccc(S(=O)(=O)F)cc3)CC2)n1 | < 4.52 | 4.81 | – | < 4.52 | < 4.52 | 4.71 | < 4.52 | 5.89 | 5.11 | – | – | – | – | – | – | – | – | – | – | – | – | –

Continued, in another order:

pIC50 (MELK; cell material: Lysate mix) | pIC50 (UniProt P51955; cell material: Lysate mix) | pIC50 (NEK3; cell material: Jurkat cells) | pIC50 (NEK3; cell material: Lysate mix) | pIC50 (UniProt O60285) | pIC50 (TGFBR1; cell material: Lysate mix) | pIC50 (IRAK4; cell material: Lysate mix) | pIC50 (SRC; cell material: Lysate mix) | pIC50 (IRAK1; cell material: Lysate mix) | SMILES | pIC50 (MELK; cell material: Jurkat cells) | pIC50 (MELK; cell material: Jurkat lysate) | pIC50 (UniProt P51955; cell material: Jurkat cells) | pIC50 (UniProt P51955; cell material: Jurkat lysate) | pIC50 (SRC; cell material: Jurkat cells) | pIC50 (SRC; cell material: Jurkat lysate) | pIC50 (TGFBR1; cell material: Jurkat cells) | pIC50 (TGFBR1; cell material: Jurkat lysate) | pIC50 (IRAK1; cell material: Jurkat cells) | pIC50 (IRAK1; cell material: Jurkat lysate) | pIC50 (IRAK4; cell material: Jurkat cells) | pIC50 (IRAK4; cell material: Jurkat lysate) | pIC50 (NEK3; cell material: Jurkat lysate)
< 4.52 | < 4.52 | 5.56 | < 4.52 | < 4.52 | < 4.52 | < 4.52 | – | – | O=C(NCCNC(=O)c1cc(Nc2cc(C3CC3)[nH]n2)nc(N2CCN(Cc3ccc(S(=O)(=O)F)cc3)CC2)n1)OC1CC/C=C/CCC1 (configuration not stated) | < 4.52 | < 4.52 | 6.24 | < 4.52 | 5.9 | < 4.52 | 4.81 | < 4.52 | 5.53 | < 4.52 | 5.24 | < 4.52 | –
< 4.52 | < 4.52 | – | < 4.52 | < 4.52 | < 4.52 | < 4.52 | 4.7 | < 4.52 | Cc1cc(Nc2cc(C(=O)NCCNC(=O)OC3CC/C=C/CCC3)nc(N3CCN(Cc4ccc(S(=O)(=O)F)cc4)CC3)n2)n[nH]1 (configuration not stated) | – | – | – | – | – | – | – | – | – | – | – | – | –
< 4.52 | 5.69 | – | 5.46 | 4.98 | 5.41 | 5.19 | 6.14 | 5.72 | CCNC(=O)c1cc(Nc2cc(C3CC3)[nH]n2)nc(N2CCN(Cc3ccc(S(=O)(=O)F)cc3)CC2)n1 | – | – | – | – | – | – | – | – | – | – | – | – | –
